According to ChEMBL document CHEMBL4665812, “Targeting Her2-insYVMA with Covalent Inhibitors-A Focused Compound Screening and Structure-Based Design Approach” (J Med Chem, 2020):
≈ marks a conversion by molar mass, not a printed value. Calls of active or inactive are those of the source. The rule behind the calls is not given here.

Legend:
[1] = Inhibition of C-terminal His6-tagged HER2-A775_G776insYVMA mutant (703 to 1029 residues) (unknown origin) expressed in Sf9 insect cells using TK as substrate measured up to 2 to 40 mins by fluorescence assay; parameters: species or system Homo sapiens
[2] = Stability of compound in human plasma assessed as parent compound remaining at 5 uM measured for 1 hr by LC-MS analysis; type: ADME, cell-free; conditions: read-out: Stabilty
[3] = Apparent permeability across basolateral side to apical side in human Caco-2 cells at 5 uM after 2 hrs by transwell assay; type: ADME, cell-based; conditions: read-out: permeability
[4] = biological target: Epidermal growth factor receptor (Homo sapiens, UniProt P00533); experiment: Inhibition of human N-terminal GST-tagged EGFR (669 to 1210 residues) expressed in baculovirus infected Sf9 insect cells using TK as substrate preincubated for 30 mins followed by substrate addition and measured after 25 mins by HTRF assay
[5] = Apparent permeability across apical side to basolateral side in human Caco-2 cells at 5 uM after 2 hrs by transwell assay; type: ADME, cell-based; conditions: read-out: permeability
[6] = Inhibition of HER2-A775_G776insYVMA mutant (unknown origin) expressed in mouse BaF3 cells assessed as reduction in HER2 induced cell viability after 96 hrs by CellTiter-Glo assay; type: cell-based; conditions: BaF3, 96 h
[7] = Solubility of compound in aqueous buffer at pH 7.4 after 120 mins by turbidometric assay; type: physicochemical
[8] = Kinetic solubility of compound in HEPES buffer a pH 7.4 at 500 uM after 90 mins; type: physicochemical; conditions: read-out: Kinetic_solubility
[9] = biological target: T1, Receptor tyrosine-protein kinase erbB-2 (Homo sapiens, UniProt P04626); experiment: Inhibition of HER2 in human H1781 cells assessed as reduction in HER2 phosphorylation at Y1248 residues at 100 to 500 nM after 1 hrs by Western blot analysis; type: cell-based; conditions: dose nM 100-500, time 1.0 hrs
[10] = Ratio of apparent permeability across basolateral to apical over apical to basolateral side in human Caco2 cells at 5 uM after 2 hrs by transwell assay; type: ADME, cell-based; conditions: Caco-2
[11] = biological target: T1, Receptor tyrosine-protein kinase erbB-2; experiment: Inhibition of HER2 in human H1781 cells assessed as reduction in HER2 phosphorylation at Y1221/1222 residues at 100 to 500 nM after 1 hrs by Western blot analysis; type: cell-based; conditions: dose nM 100-500, time 1.0 hrs
[12] = biological target: Epidermal growth factor receptor (Homo sapiens, UniProt P00533, L858R/T790M); experiment: Inhibition of human N-terminal GST-tagged EGFR L858R/T790M mutant (669 to 1210 residues) expressed in baculovirus infected Sf9 insect cells using TK as substrate preincubated for 30 mins followed by substrate addition and measured after 20 mins by HTRF assay
[13] = biological target: Epidermal growth factor receptor (Homo sapiens, UniProt P00533, L858R); experiment: Inhibition of human N-terminal GST-tagged EGFR L858R mutant (669 to 1210 residues) expressed in baculovirus infected Sf9 insect cells using TK as substrate preincubated for 30 mins followed by substrate addition and measured after 15 mins by HTRF assay
[14] = Stability of compound in mouse plasma assessed as parent compound remaining at 5 uM measured for 1 hr by LC-MS analysis; type: ADME, cell-free; conditions: read-out: Stabilty
[15] = biological target: T1, Receptor tyrosine-protein kinase erbB-2; experiment: Inhibition of C-terminal His6-tagged HER2 (703 to 1029 residues) (unknown origin) expressed in Sf9 insect cells using TK as substrate preincubated for 30 mins followed by substrate addition and measured after 60 mins in presence of XL665-labeled streptavidin by HTRF assay
[16] = Inhibition of C-terminal His6-tagged HER2-A775_G776insYVMA mutant (703 to 1029 residues) (unknown origin) expressed in Sf9 insect cells assessed as Kinact using TK as substrate measured up to 2 to 40 mins by fluorescence assay; conditions: Homo sapiens, time min 2-40
[17] = Intrinsic clearance in human liver microsomes at 1 uM measured up to 50 mins by LC-MS analysis; type: ADME, Microsome; conditions: read-out: CLH
cells = type: cell-based; conditions: Homo sapiens, NCI-H1781, 96 h
Description: Inhibition of HER2-G776delinsVC mutant (unknown origin) expressed in human H1781 cells assessed as reduction in HER2 induced cell viability after 96 hrs by CellTiter-Glo assay

[18] = Intrinsic clearance in mouse liver microsomes at 1 uM measured up to 60 mins by LC-MS analysis; type: ADME, Microsome; conditions: read-out: CLH
Homo sapiens [19] = species on record: Homo sapiens; experiment: Inhibition of S6 phosphorylation at T202/204 residues in human H1781 cells after 1 hrs by Western blot analysis; type: cell-based; conditions: dose nM 10-500, time 1.0 hrs
Homo sapiens [20] = species on record: Homo sapiens; experiment: Inhibition of MAPK phosphorylation at T202/204 residues in human H1781 cells after 1 hrs by Western blot analysis; type: cell-based; conditions: dose nM 10-500, time 1.0 hrs
[21] = biological target: T1, Receptor tyrosine-protein kinase erbB-2; experiment: Inhibition of HER2 in human H1781 cells assessed as reduction in HER2 phosphorylation at Y1248 residues after 1 hrs by Western blot analysis; type: cell-based; conditions: dose nM 10-500, time 1.0 hrs
[22] = biological target: Serine/threonine-protein kinase AKT (Homo sapiens) (UniProt P31751+Q9Y243+P31749); experiment: Inhibition of AKT phosphorylation at S473 residues in human H1781 cells after 1 hrs by Western blot analysis; type: cell-based; conditions: dose nM 10-500, time 1.0 hrs
[23] = biological target: T1, Receptor tyrosine-protein kinase erbB-2; experiment: Inhibition of HER2 in human H1781 cells assessed as reduction in HER2 phosphorylation at Y1221/1222 residues after 1 hrs by Western blot analysis; type: cell-based; conditions: dose nM 10-500, time 1.0 hrs
[24] = Intrinsic clearance in human liver microsomes at 3 uM measured up to 50 mins by LC-MS analysis; type: ADME, Microsome; conditions: read-out: CLH
[25] = Intrinsic clearance in mouse liver microsomes at 3 uM measured up to 60 mins by LC-MS analysis; type: ADME, Microsome; conditions: read-out: CLH

T1 sequence (P04626 whole entry): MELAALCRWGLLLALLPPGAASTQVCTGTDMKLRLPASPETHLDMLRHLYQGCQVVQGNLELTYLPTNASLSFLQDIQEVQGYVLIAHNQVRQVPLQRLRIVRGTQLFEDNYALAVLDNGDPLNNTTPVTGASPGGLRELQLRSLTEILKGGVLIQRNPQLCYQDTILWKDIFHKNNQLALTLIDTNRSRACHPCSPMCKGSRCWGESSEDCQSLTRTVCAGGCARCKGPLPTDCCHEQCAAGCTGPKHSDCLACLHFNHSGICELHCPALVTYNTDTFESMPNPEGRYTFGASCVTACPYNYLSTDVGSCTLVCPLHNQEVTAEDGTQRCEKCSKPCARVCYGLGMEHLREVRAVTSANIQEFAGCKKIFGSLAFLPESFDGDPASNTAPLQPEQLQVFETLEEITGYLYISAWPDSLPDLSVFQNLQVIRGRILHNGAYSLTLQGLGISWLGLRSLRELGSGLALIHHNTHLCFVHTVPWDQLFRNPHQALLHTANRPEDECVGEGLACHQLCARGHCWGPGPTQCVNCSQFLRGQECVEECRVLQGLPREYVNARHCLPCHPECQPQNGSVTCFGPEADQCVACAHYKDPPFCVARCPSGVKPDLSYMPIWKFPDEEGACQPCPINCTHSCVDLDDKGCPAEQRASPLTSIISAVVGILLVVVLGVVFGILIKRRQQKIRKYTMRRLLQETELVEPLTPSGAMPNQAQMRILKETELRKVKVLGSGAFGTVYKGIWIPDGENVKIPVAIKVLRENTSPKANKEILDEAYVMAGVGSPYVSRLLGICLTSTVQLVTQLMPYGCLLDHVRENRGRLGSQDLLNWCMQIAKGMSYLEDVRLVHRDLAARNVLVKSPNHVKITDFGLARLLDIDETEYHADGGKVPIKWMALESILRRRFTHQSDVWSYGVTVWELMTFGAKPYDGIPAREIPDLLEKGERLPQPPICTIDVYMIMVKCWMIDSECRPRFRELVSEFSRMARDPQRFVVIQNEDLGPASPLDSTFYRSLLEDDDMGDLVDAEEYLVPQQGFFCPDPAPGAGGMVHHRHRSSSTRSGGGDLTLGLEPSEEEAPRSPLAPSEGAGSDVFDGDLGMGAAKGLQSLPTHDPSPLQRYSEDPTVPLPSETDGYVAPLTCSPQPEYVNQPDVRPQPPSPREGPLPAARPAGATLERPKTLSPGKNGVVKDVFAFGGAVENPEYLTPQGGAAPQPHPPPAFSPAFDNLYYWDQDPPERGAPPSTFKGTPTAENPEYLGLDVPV
Epidermal growth factor receptor (Homo sapiens, UniProt P00533), sequence (P00533 whole entry, the tested form may be a part): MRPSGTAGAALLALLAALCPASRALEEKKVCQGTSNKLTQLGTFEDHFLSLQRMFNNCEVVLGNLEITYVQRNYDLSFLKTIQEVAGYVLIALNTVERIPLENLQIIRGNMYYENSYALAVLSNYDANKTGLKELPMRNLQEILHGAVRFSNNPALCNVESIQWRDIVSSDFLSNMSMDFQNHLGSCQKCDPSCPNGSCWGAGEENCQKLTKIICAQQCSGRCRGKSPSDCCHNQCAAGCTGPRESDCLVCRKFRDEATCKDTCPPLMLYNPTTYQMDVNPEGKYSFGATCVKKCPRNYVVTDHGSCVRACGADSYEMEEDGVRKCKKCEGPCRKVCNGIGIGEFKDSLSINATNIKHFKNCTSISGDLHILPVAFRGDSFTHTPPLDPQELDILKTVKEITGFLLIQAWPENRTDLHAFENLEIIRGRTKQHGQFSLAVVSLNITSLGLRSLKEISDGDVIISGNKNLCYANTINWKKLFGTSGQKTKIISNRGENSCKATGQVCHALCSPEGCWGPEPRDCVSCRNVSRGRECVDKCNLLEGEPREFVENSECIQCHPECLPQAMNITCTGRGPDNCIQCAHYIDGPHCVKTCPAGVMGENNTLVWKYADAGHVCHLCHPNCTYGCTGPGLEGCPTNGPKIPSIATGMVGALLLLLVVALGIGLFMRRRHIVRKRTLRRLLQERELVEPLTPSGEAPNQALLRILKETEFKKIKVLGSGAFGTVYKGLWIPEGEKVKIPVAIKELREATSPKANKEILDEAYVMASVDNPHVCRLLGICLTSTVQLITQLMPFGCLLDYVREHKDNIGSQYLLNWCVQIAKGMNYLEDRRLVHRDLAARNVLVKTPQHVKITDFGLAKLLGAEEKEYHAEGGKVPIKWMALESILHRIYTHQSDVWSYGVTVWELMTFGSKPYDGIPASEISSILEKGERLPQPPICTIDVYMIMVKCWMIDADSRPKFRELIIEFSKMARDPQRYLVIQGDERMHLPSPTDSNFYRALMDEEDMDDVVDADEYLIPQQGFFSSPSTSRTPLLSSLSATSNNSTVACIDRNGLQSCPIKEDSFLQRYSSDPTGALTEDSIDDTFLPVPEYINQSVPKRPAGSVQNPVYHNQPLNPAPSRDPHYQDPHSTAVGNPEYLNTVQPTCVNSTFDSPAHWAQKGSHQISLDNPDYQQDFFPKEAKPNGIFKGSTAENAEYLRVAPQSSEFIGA
Epidermal growth factor receptor (Homo sapiens, UniProt P00533, L858R), sequence (P00533 25-1210 L858R limits assumed): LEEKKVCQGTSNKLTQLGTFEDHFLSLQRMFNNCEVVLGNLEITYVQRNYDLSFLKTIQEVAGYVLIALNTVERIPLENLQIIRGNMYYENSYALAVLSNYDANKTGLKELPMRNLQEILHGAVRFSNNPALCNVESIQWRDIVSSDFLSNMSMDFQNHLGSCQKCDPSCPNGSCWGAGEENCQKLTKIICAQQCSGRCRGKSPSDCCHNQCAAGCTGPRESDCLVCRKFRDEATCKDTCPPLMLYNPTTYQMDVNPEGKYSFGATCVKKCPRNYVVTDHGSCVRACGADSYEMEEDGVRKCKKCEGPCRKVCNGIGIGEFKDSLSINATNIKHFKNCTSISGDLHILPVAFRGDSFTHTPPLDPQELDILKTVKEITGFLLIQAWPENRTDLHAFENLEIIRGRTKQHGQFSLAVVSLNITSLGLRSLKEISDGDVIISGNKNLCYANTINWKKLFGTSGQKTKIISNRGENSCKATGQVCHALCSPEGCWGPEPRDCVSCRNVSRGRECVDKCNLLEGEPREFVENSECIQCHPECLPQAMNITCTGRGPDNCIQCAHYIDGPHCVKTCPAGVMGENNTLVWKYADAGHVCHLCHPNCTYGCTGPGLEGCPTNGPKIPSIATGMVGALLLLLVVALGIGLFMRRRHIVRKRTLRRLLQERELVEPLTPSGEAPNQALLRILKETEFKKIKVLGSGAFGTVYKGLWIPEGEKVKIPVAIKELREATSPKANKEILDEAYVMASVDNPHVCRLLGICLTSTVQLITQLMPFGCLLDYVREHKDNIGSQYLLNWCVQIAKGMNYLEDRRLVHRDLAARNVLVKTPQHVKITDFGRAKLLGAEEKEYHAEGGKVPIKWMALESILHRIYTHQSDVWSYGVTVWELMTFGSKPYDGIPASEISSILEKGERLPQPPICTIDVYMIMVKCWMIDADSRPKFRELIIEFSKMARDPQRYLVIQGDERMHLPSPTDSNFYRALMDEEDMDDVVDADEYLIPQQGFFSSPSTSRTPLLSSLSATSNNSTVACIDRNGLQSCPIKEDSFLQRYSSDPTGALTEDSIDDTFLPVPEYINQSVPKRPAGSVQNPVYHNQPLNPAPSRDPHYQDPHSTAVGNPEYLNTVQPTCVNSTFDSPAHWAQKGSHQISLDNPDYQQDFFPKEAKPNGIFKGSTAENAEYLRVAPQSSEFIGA
Serine/threonine-protein kinase AKT (Homo sapiens), sequence (P31749 whole entry, looked up): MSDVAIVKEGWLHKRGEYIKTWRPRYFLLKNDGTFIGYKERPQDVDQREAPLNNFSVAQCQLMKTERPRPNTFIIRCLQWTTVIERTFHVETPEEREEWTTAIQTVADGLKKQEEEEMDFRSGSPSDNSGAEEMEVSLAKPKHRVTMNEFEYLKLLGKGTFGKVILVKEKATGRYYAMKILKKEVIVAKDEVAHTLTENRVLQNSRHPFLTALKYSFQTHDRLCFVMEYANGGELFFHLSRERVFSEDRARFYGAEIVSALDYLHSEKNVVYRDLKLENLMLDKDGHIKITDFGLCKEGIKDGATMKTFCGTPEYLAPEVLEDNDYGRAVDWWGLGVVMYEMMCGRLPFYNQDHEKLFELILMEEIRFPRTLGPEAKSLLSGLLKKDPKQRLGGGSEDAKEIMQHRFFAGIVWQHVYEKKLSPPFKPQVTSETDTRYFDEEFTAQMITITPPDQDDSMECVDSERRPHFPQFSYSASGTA
Serine/threonine-protein kinase AKT (Homo sapiens), sequence (P31751 whole entry, looked up): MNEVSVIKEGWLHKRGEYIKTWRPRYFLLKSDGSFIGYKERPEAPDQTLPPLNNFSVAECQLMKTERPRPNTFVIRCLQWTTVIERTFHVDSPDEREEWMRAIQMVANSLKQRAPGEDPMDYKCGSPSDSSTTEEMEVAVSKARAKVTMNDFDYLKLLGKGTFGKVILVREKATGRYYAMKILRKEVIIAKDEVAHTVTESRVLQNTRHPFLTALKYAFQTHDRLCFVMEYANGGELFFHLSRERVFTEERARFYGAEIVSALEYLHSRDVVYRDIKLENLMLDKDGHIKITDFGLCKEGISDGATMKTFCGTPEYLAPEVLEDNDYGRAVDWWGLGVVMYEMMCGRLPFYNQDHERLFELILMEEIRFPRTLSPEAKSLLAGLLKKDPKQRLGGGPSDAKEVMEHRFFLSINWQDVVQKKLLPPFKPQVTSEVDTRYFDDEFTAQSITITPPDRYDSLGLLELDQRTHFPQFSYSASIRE
Serine/threonine-protein kinase AKT (Homo sapiens), sequence (Q9Y243 whole entry, looked up): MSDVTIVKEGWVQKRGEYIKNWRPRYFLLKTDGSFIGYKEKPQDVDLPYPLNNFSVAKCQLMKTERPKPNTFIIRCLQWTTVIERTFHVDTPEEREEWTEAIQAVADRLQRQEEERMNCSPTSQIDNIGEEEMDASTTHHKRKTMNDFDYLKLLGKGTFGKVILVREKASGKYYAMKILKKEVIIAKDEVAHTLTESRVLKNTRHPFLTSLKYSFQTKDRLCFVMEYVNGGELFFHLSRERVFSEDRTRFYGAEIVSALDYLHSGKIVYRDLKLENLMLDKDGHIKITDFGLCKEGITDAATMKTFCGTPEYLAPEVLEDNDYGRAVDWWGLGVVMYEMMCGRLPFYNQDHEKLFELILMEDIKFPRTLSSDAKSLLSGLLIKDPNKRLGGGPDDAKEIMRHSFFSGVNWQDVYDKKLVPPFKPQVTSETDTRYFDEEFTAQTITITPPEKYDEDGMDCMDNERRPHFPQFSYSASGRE

Structure (SMILES)	Ki [1]	remaining at 1 h, 5 µM [2]	Papp B→A at 2 h, 5 µM [3]	IC50 [4]	Papp A→B at 2 h, 5 µM [5]	IC50 [6]	solubility kinetic at 2 h [7]	solubility kinetic at 1.5 h, 500 µM [8]	inhibition [9]	efflux ratio at 2 h, 5 µM [10]	inhibition [11]	IC50 [12]	IC50 [13]	remaining at 1 h, 5 µM [14]	IC50 [15]	Kinact [16]	microsomal CLint at 1 µM [17]	IC50 (cells)	microsomal CLint at 1 µM [18]	inhibition (Homo sapiens [19])	further results
C=CC(=O)Nc1cc(-c2c[nH]c3ncnc(Nc4ccc(OCc5ccccn5)c(Cl)c4)c23)ccc1OCCN(C)C	49 nM	74.4%	23.9 ×10⁻⁶ cm/s	0.09 nM	2.1 ×10⁻⁶ cm/s	120 nM	100 µM (≈ 58.4 µg/mL)	60.6 µM (≈ 35.4 µg/mL)	Active	11.4	Active	2 nM	0.1 nM	0.8%	15 nM	0.212 min⁻¹	64.2 µL/min/mg	164 nM	866 µL/min/mg		
C=CC(=O)Nc1cccc(-c2c[nH]c3ncnc(Nc4ccc(CN5C(=O)c6ccccc6C5=O)cc4)c23)c1	143 nM	78.1%	0.1 ×10⁻⁶ cm/s	0.4 nM	0.5 ×10⁻⁶ cm/s	381 nM	30 µM (≈ 15.4 µg/mL)	8.3 µM (≈ 4.27 µg/mL)		0.2		33 nM	0.2 nM	81.3%	11 nM	0.132 min⁻¹	96.3 µL/min/mg	419 nM	770 µL/min/mg	Dose-dependent effect	inhibition (Homo sapiens [20]): Dose-dependent effect; inhibition [21]: Dose-dependent effect; inhibition [22]: Dose-dependent effect; inhibition [23]: Dose-dependent effect
C=CC(=O)Nc1cc(-c2c[nH]c3ncnc(Nc4ccc5c(cnn5Cc5ccccc5)c4)c23)ccc1OCCO	67 nM	90.9%	5.2 ×10⁻⁶ cm/s	0.07 nM	1.2 ×10⁻⁶ cm/s	159 nM	30 µM (≈ 16.4 µg/mL)	16.8 µM (≈ 9.17 µg/mL)	Active	4.5	Active	6 nM	0.1 nM	88.4%	14 nM	0.138 min⁻¹	66 µL/min/mg	508 nM	603 µL/min/mg		
C=CC(=O)Nc1cccc(-c2c[nH]c3ncnc(Nc4ccc(OCc5ccccn5)c(Cl)c4)c23)c1	54 nM	79.8%	0.6 ×10⁻⁶ cm/s	0.08 nM	1.9 ×10⁻⁶ cm/s	83 nM	30 µM (≈ 14.9 µg/mL)			0.3		3.9 nM	0.1 nM	49%	11 nM	0.136 min⁻¹		161 nM		Dose-dependent effect	inhibition (Homo sapiens [20]): Dose-dependent effect; inhibition [21]: Dose-dependent effect; microsomal CLint at 3 µM [24]: 27.7 µL/min/mg; microsomal CLint at 3 µM [25]: 125 µL/min/mg; inhibition [22]: Dose-dependent effect; inhibition [23]: Dose-dependent effect
